Here are results for 12 compounds from US20020035260A1, “4-aza-steroids” (Novopharm Limited, priority 1997, published 2002).

SMILES strings stand for the structures. Where “and” joins values, the source holds several entries; their conditions need not be identical. Identical values can stand only once. Like-named read-outs stand apart in the source and are kept apart here.

Common to all, as to assay type: biochemical
Test [1] has as its target T1, 5-α-reductase II enzyme (Homo sapiens, UniProt P31213).
T1 construct: Specimens of human prostates were quickly frozen in dry ice after collection and kept at −70° C. before isolation of the enzyme; from tissue; host or cells: human prostate specimens, particulate fraction
T1 sequence (P31213 1-254): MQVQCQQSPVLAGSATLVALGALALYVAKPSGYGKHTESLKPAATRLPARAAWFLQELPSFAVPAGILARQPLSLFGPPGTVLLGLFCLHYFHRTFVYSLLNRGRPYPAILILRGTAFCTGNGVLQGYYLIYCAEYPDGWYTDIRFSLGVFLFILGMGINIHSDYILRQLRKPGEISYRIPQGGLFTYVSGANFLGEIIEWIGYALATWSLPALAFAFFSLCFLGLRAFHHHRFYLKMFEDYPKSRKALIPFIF
Kind of test: Human 5-α-reductase II enzyme assay (human prostate). To be noted: Tris-citrate pH 5.0. As to the method:
(§1) Biochemical Assays were carried out to determine the inhibitory activities of various compounds of the previous examples on 5-α-reductase I enzyme isolated from male rate prostate and 5-α-reductase II enzyme isolated from rat epididymus and human prostate. These procedures were carried out following published literature procedures (H. Takami et al., J. Med. Chem., 39, pp 5047-5052; Tehming Liang, Margaret A. Cascieri et al., Endocrinology, 117, pp 571-579). Brief descriptions are as follows:
(§2) Rat 5-α-reductase II enzyme assay: Epididymus, taken out during the isolation of the rat prostates during rat enzyme I assay, was stored at −70° C. Isolation of the enzyme and the assay were carried out following the procedure described above, except the reaction buffer used was 40 mM Tris-citrate, pH 4.5. The range of IC50 values for different test compounds obtained from different experiments is shown in Table 1 under the column, Rat Epididymus Enzyme II IC50.
(§3) Human 5-α-reductase II enzyme assay: Specimens of human prostates were quickly frozen in dry ice after collection and kept at −70° C. before isolation of the enzyme. Isolation of the enzyme and the assay were carried out following a similar procedure as for the isolation of rat 5-α-reductase II enzyme with some modifications. During the isolation of the enzyme, 50 μM NADPH was added to the homogenizing buffer as a stabilizer. The enzyme was stored in the homogenizing buffer containing 20% glycerol. The enzyme reaction buffer used as 40 mM Tris-citrate buffer, pH 5.0. The range of IC50 values for different test compounds obtained from different experiments is shown in Table 1 under the column, Human Prostate Enzyme II IC50.

In test [2] the target is T2, 5-α-reductase II enzyme (Rattus norvegicus, UniProt P31214).
T2 construct: from tissue; host or cells: rat epididymis (Sprague Dawley), particulate fraction
T2 sequence (P31214 1-254): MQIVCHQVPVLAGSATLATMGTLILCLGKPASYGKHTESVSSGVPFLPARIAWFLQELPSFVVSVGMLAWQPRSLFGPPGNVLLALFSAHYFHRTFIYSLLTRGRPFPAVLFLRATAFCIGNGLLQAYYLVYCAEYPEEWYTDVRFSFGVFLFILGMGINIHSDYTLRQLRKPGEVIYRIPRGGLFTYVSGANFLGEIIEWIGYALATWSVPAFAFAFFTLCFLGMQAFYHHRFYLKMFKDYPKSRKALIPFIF
Kind of test: Rat 5-α-reductase II enzyme assay (rat epididymus). To be noted: range of IC50 values from different experiments; Tris-citrate pH 4.5. The method, then:
as §1
(§4) Rat 5-α-reductase I enzyme assay. Prostates, removed from 16 young male Sprague dawley rats (each weighing about 300-400 g), were minced and homogenized at 0-4° C. in 3 tissue volumes of buffer (0.32 M sucrose, 1 mM dithiothreitol, and 20 mM phosphate buffer, pH 6.5) using a polytron homogenizer. The homogenate was centrifuged at 4° C. at 140,000 g for 1 hour. The resultant pellet, after washing with the homogenizing buffer was suspended in the same buffer and stored at −70° C. The assay was carried out in a final volume of 0.5 ml containing 20 mM phosphate buffer (pH 6.5), 1 mM dithiothreitol, 150 μM NADPH, 2 μM ^14C testosterone and the enzyme concentration (500 μg-1 mg) For conducting the inhibitory studies on a 5-α-reductase I, finasteride and other test compounds were added in 10 μl of ethanol to a concentration 10^−9 to 10^−5 with five to six points including control using duplicate for each point to the above reaction mixture. The incubations were done for 20 minutes at 37° C. The reactions were stopped by adding 2.0 ml of ethyl acetate containing testosterone, 5-α-dihydrotestosterone, and androstenedione (10 μg each). After centrifugation at 1000 g for 5 minutes, the upper ethyl acetate extract was transferred to a tube and then evaporated under nitrogen to dryness. The compounds were taken up in 50 μl of ethyl acetate and chromatographed on Whatman LK5DF silica GF TLC plates using ethyl acetate-cyclohexane (1:1). The respective TLC spots corresponding to testosterone and dihydrotestosterone (Rf value same as that of androstenedione) were scraped from the plate and taken in respective scintillation vials. They were counted in the Beckman scintillation counter model No. LS 6500 with counting efficiency of 95% for ^14C carbon. Finasteride was used as a known standard during all screening. The range of IC50 values for different test compounds obtained from different experiments is shown in Table 1 under the column, Rat Prostate Enzyme I IC50.
as §2

A further test has as its target T3, 5-α-reductase I enzyme (Rattus norvegicus, UniProt P24008).
T3 construct: Prostates, removed from 16 young male Sprague dawley rats (each weighing about 300-400 g), were minced and homogenized; from tissue; host or cells: rat prostate (Sprague Dawley), 140,000 g pellet
T3 sequence (P24008 1-259): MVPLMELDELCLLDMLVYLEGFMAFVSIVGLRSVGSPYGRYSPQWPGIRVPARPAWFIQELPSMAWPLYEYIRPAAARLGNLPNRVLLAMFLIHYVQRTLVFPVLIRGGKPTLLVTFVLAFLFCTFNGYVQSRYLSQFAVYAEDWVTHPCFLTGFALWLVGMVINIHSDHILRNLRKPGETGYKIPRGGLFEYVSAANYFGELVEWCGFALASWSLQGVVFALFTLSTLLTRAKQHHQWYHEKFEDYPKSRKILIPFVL
Kind of test: Rat 5-α-reductase I enzyme assay (rat prostate). To be noted: range of IC50 values from different experiments; pH 6.5, 2 μM 14C testosterone. The method, then: as §1, §4

The next test deals with T4, 5-α-reductase type II (Homo sapiens, UniProt P31213).
T4 sequence (P31213 1-254): T1 sequence (P31213 1-254)
Kind of test: Activity against 5-α-reductase type II. To be noted: statement in words, compared with finasteride. As to the method:
as §2, §3

Setting [3] is: range of IC50 values from different experiments, read-out: Human Prostate Enzyme II IC50.

What is called IC50 is the concentration needed to halve the response being measured. With `CC(C)(C)NC(=O)[C@H]1CC[C@H]2[C@@H]3[C@H](Cl)C[C@H]4NC(=O)CC[C@]4(C)[C@H]3CC[C@]12C` [1,2-Dihydro-7-α-chloro-finasteride, 1,2-dihydro-7-α-chloro-finasteride], the IC50 at 5-α-reductase II enzyme [1] (setting [3]) lay within 11.5 to 44 nM; on 5-α-reductase II enzyme [2] it was 2.9 to 8.6 nM; at 5-α-reductase I enzyme, 53 to 99 nM.

On to `CC(C)(C)NC(=O)[C@H]1CC[C@H]2[C@@H]3[C@@H](O)C[C@H]4NC(=O)CC[C@]4(C)[C@H]3CC[C@]12C` [1,2-Dihydro-7-β-hydroxy-finasteride, 1,2-dihydro-7-β-hydroxy-finasteride], for which the IC50 on 5-α-reductase II enzyme [1] (setting [3]) lay within 536 to 755 nM; at 5-α-reductase II enzyme [2] it was 567 to 891 nM; on 5-α-reductase I enzyme, 453 to 492 nM.

As to `CC(C)(C)NC(=O)[C@H]1C[C@@H](O)[C@H]2[C@@H]3CC[C@H]4NC(=O)CC[C@]4(C)[C@H]3CC[C@@]21C` [1,2-Dihydro-15-β-hydroxy-finasteride, 1,2-dihydro-15β-hydroxy-finasteride], the IC50 at 5-α-reductase I enzyme lay in the range of 351 to 468 nM.

With `CC(C)(C)NC(=O)[C@H]1CC[C@H]2[C@@H]3[C@H](N=[N+]=[N-])C[C@H]4NC(=O)C=C[C@]4(C)[C@H]3CC[C@]12C` [7-α-Azido-finasteride, 7-α-azido-finasteride], the half-inhibitory concentration (IC50) on 5-α-reductase II enzyme [1] (setting [3]) is 19 to 32 nM. At 5-α-reductase type II, the “activity against 5-α-reductase type II” value is “very high specific inhibitory activity”.

As for `CC(C)(C)NC(=O)[C@H]1CC[C@H]2[C@@H]3[C@H](Cl)C[C@H]4NC(=O)C=C[C@]4(C)[C@H]3CC[C@]12C` [7-α-Chloro-finasteride, 7-α-chloro-finasteride], the IC50 at 5-α-reductase II enzyme [1] (setting [3]) lay within 0.9 to 3.6 nM; on 5-α-reductase II enzyme [2] it was 1.92 to 3.1 nM; on 5-α-reductase I enzyme, 306 to 350 nM. Besides, the “activity against 5-α-reductase type II” value on 5-α-reductase type II is listed as “considerably higher than that of finasteride itself”.

As for `CC(=O)O[C@H]1C[C@H]2NC(=O)C=C[C@]2(C)[C@H]2CC[C@]3(C)[C@@H](C(=O)NC(C)(C)C)CC[C@H]3[C@H]12` [7-β-Acetoxy-finasteride, 7-β-acetoxy-finasteride], the IC50 fell in the range of 175 to 362 nM on 5-α-reductase II enzyme [1] (setting [3]), 135 to 357 nM on 5-α-reductase II enzyme [2] and 385 to 697 nM at 5-α-reductase I enzyme.

For the compound `Cc1ccc(S(=O)(=O)O[C@H]2C[C@H]3NC(=O)C=C[C@]3(C)[C@H]3CC[C@]4(C)[C@@H](C(=O)NC(C)(C)C)CC[C@H]4[C@H]23)cc1` [7-β-Tosyloxy-finasteride, 7-β-tosyloxy-finasteride], the IC50 lay in the range of 213 to 570 nM on 5-α-reductase II enzyme [1] (setting [3]) and 1500 to 4300 nM against 5-α-reductase I enzyme.

Regarding `CC(C)(C)NC(=O)C1CCC2C3C(CCC12C)C1(C)C=CC(=O)NC1C[C@@H]3O` (stereo partly drawn) [7-β-hydroxy-finasteride], the IC50 on 5-α-reductase II enzyme [1] (setting [3]) was 62 to 64 nM; against 5-α-reductase II enzyme [2] it was 106 nM; against 5-α-reductase I enzyme, 811 to 1800 nM.

For the compound `CC(C)(C)NC(=O)[C@H]1CC=C2[C@@H]3CC[C@H]4NC(=O)C=C[C@]4(C)[C@H]3CC[C@@]21C` [14,15-Dehydro-finasteride, 14,15-dehydro-finasteride], the values for the IC50 on 5-α-reductase II enzyme [1] (setting [3]), on 5-α-reductase II enzyme [2] and against 5-α-reductase I enzyme were 39 to 49.6 nM, 45 nM and 50 to 67 nM, respectively.

For `CC(=O)O[C@@H]1C[C@H](C(=O)NC(C)(C)C)[C@@]2(C)CC[C@H]3[C@@H](CC[C@H]4NC(=O)C=C[C@@]43C)[C@H]12` [15-β-Acetoxy-finasteride, 15-β-acetoxy-finasteride], the IC50 on 5-α-reductase II enzyme [1] (read-out: Human Prostate Enzyme II IC50) is 2010 nM; against 5-α-reductase II enzyme [2], 1600 to 2700 nM; on 5-α-reductase I enzyme, 4200 to 5700 nM.

For the compound `CC(C)(C)NC(=O)C1CC(O)C2C3CCC4NC(=O)C=CC4(C)C3CCC12C` (stereo not drawn) [15-β-hydroxy-finasteride], the values for the IC50 at 5-α-reductase II enzyme [1] (setting [3]), against 5-α-reductase II enzyme [2] and against 5-α-reductase I enzyme were 50 to 59 nM, 640 nM and 805 to 853 nM, respectively.

Regarding `CC(C)(C)NC(=O)C1CCC2C3CCC4NC(=O)C=CC4(C)C3CCC12C` (stereo not drawn) [Finasteride, (5α, 17β)-(1,1-dimethyl-ethyl)-3-oxo-4-aza-androst-1-ene-17-carboxamide, reference compound], the IC50 against 5-α-reductase II enzyme [1] (Human Prostate Enzyme II IC50, range of IC50 values from different experiments) is 2.7 to 10.6 nM and 3.3 to 7 nM; at 5-α-reductase II enzyme [2] it was 5.1 to 14.8 nM and 2.9 to 11.8 nM; at 5-α-reductase I enzyme, 11 to 38 nM and 13 to 30 nM.
